Data as given in publication PMC8776995 (Frontiers in Chemistry, 2022).
Values joined by “and” are separate entries in the source; they are usually repeats but may differ in a detail not shown here. Equal entries are not always repeated.

Tested on: CCND1, CCNA2, CCNB1, CDK2, CDK6 RNA in PC-9 cells
Assay: qPCR assay for cell cycle-related gene analysis
Format: cell-based, human
Conditions: for CCNB relative mRNA expression (2^-ddCt vs NC, normalised to beta-Actin) / CCND1 relative mRNA expression (2^-ddCt vs NC, normalised to beta-Actin) / CDK6 relative mRNA expression (2^-ddCt vs NC, normalised to beta-Actin): qPCR SYBR_GREEN, NC = 1; for RQ / RQ, CCNA / RQ, CCNB / RQ, CCND1 / RQ, CDK6: endogenous control b-Actin, reference sample NC; for CDK6 relative mRNA expression (fold of NC): normalised to beta-Actin, relative to NC = 1
Description: To better understand the mechanisms underlying cell cycle arrest induced by e4 and e12 in NSCLC cells, we assessed the expression levels of a few genes involved in cell cycle regulation, including cyclin D1 (CCND1), cyclin A2 (CCNA2), cyclin B1 (CCNB1), cyclin-dependent kinase 2 (CDK2), and cyclin-dependent kinase 6 (CDK6) in PC-9 by qPCR. […] CCNA2 is known to bind and activate CDK2 and thus promotes the transition through G1/S and G2/M. CCNB1 and CCND1 are essential to mitosis and G1/S transition respectively. While G2/M arrest weas not detected, the changes in these gene expression profiles interpret the G1/S arrests in PC-9 cells treated with e4 and e12. PC-9 cells exposed to the compounds for various periods should be examined further.
Total RNA of cells was extracted and cDNA was synthesized. The primers for the target products were designed as in Table 3.

[1] = 4uM, Repeat 1-3, relative to NC = 1
[2] = 8uM, Repeat 1-3, relative to NC = 1
[3] = 12uM, Repeat 1-3, relative to NC = 1
[4] = PC-9, 16 h, compared with DMSO control

In the case of `COCCOc1cc2ncnc(Nc3cccc(-c4cn(Cc5cc(Br)cc(Br)c5)nn4)c3)c2cc1OCCOC` [e4, [6,7-Bis-(2-methoxy-ethoxy)-quinazolin-4-yl]-{3-[1-(3,5-dibromo-benzyl)-1H-[1,2,3]triazol-4-yl]-phenyl}-amine], the “CCNB relative mRNA expression (2^-ddCt vs NC, normalised to beta-Actin)” value (4uM) is reported as 0.8081, the “CCNB relative mRNA expression (2^-ddCt vs NC, normalised to beta-Actin)” value (8uM) is reported as 0.7848 and the “CCND1 relative mRNA expression (2^-ddCt vs NC, normalised to beta-Actin)” value (8uM) is reported as 0.7172. The “CDK6 relative mRNA expression (2^-ddCt vs NC, normalised to beta-Actin)” value (8uM) was 0.824, the “CCNB relative mRNA expression (2^-ddCt vs NC, normalised to beta-Actin)” value (12uM) was 0.736 and the “CCND1 relative mRNA expression (2^-ddCt vs NC, normalised to beta-Actin)” value (12uM) was 0.6074. For the same compound, the “CDK6 relative mRNA expression (2^-ddCt vs NC, normalised to beta-Actin)” value (12uM) was 1.051, the RQ (CCNA mRNA, 4uM) was 0.764 and the RQ (CCNA mRNA, 8uM) was 0.7042. The RQ (CCNA mRNA, 12uM) was 0.7817, the “2^ΔΔCт CCNA” value [1] was 0.7613 and 0.8165 and 0.764 and the “2^ΔΔCт CCNA” value [2] was 0.7109 and 0.778 and 0.7042. For the same compound, the “2^ΔΔCт CCNA” value [3] was 0.5857 and 0.5446 and 0.7817, the RQ (CCNB mRNA, 4uM) was 0.9138 and the RQ (CCNB mRNA, 8uM) was 0.7783. For the same compound, the RQ (CCNB mRNA, 12uM) was 1.003, the “2^ΔΔCт CCNB” value [1] was 0.8081 and 0.8617 and 0.9138 and the “2^ΔΔCт CCNB” value [2] was 0.7848 and 0.9105 and 0.7783. The “2^ΔΔCт CCNB” value [3] was 0.736 and 0.7897 and 1.003, the “2^ΔΔCт CCND1” value (CCND1, 4uM, Repeat 1-3, relative to NC = 1) was 0.8337 and 1.076 and 0.8297 and the “2^ΔΔCт CCND1” value (CCND1, 8uM, Repeat 1-3, relative to NC = 1) was 0.7172 and 1.068 and 0.8923. For the same compound, the “2^ΔΔCт CCND1” value (CCND1, 12uM, Repeat 1-3, relative to NC = 1) was 0.6074 and 0.7441 and 0.7112, the “2^ΔΔCт” value (CCND1, 12uM, normalized to WT (NC), run 20201020-2) was 0.7112 and the RQ (CCND1 mRNA, 4uM) was 0.8297. For the same compound, the RQ (CCND1 mRNA, 8uM) was 0.8923, the RQ (CCND1 mRNA, 12uM) was 0.7112 and the “2^ΔΔCт CDK2” value (CDK2, 4uM, Repeat 1-3, relative to NC = 1) was 1.17 and 1.2056 and 1.028. For the same compound, the “2^ΔΔCт CDK2” value (CDK2, 8uM, Repeat 1-3, relative to NC = 1) was 1.1688 and 1.551 and 1.159, the “2^ΔΔCт CDK2” value (CDK2, 12uM, Repeat 1-3, relative to NC = 1) was 0.9257 and 1.095 and 1.173 and the RQ (CDK2 mRNA, 4uM) was 1.028. The RQ (CDK2 mRNA, 8uM) was 1.159, the RQ (CDK2 mRNA, 12uM) was 1.173 and the “2^ΔΔCт CDK6” value (CDK6, 4uM, Repeat 1-3, relative to NC = 1) was 0.8111 and 1.387 and 0.8685. For the same compound, the “2^ΔΔCт CDK6” value (CDK6, 12uM, Repeat 1-3, relative to NC = 1) was 1.051 and 1.348 and 1.109, the RQ (CDK6 mRNA, 4uM) was 0.8685 and the RQ (CDK6 mRNA, 8uM) was 0.637. The RQ (CDK6 mRNA, 12uM) was 1.109, the “RNA expression of CCND1” value (PC-9, 12 μM, 16 h) was “negatively regulated” and the “RNA level of CCNA2” value [4] was “significantly decreased”. For the same compound, the “RNA level of CCNB1” value [4] was “significantly decreased”, the “RQ, CCNA” value (qPCR SYBR Green, CCNA mRNA, 4uM) was 0.8165 and the “RQ, CCNA” value (qPCR SYBR Green, CCNA mRNA, 8uM) was 0.778. For the same compound, the “RQ, CCNA” value (qPCR SYBR Green, CCNA mRNA, 12uM) was 0.5446, the “RQ, CCNB” value (qPCR SYBR Green, CCNB mRNA, 4uM) was 1.076 and the “RQ, CCNB” value (qPCR SYBR Green, CCNB mRNA, 8uM) was 1.137. For the same compound, the “RQ, CCNB” value (qPCR SYBR Green, CCNB mRNA, 12uM) was 0.9859, the “RQ, CCND1” value (qPCR SYBR Green, CCND1 mRNA, 4uM) was 1.076 and the “RQ, CCND1” value (qPCR SYBR Green, CCND1 mRNA, 8uM) was 0.7718. For the same compound, the “RQ, CCND1” value (qPCR SYBR Green, CCND1 mRNA, 12uM) was 0.7441, the “RQ, CDK6” value (qPCR SYBR Green, CDK6 mRNA, 4uM) was 1.387 and the “RQ, CDK6” value (qPCR SYBR Green, CDK6 mRNA, 8uM) was 1.7457. The “RQ, CDK6” value (qPCR SYBR Green, CDK6 mRNA, 12uM) was 1.348, the “CDK6 relative mRNA expression (fold of NC, normalised to beta-Actin)” value (qPCR, SYBR Green, 8uM) was 1.746 and the “CDK6 relative mRNA expression (fold of NC)” value (qPCR, SYBR Green, 8uM) was 0.9943. For the same compound, the “CDK6 relative mRNA expression (fold of NC)” value (qPCR, SYBR Green, 12uM) was 1.109, the “2^ΔΔCт CDK6” value (recalculated summary 20201020-1, normalized to WT (NC), CDK6, 4uM) was 1.387 and the “2^ΔΔCт CDK6” value (recalculated summary 20201020-1, normalized to WT (NC), CDK6, 8uM) was 1.746. For the same compound, the “RQ, CCNA” value (target CCNA, 4uM) was 0.7613, the “RQ, CCNA” value (target CCNA, 8uM) was 0.7109 and the “RQ, CCNA” value (target CCNA, 12uM) was 0.5857. For the same compound, the “RQ, CCNB” value (target CCNB, 4uM) was 0.8081.
